Results reported in publication PMC11802874, “The hypolipidemic effect of MI-883, the combined CAR agonist/ PXR antagonist, in diet-induced hypercholesterolemia model” (Nature Communications, 2025).
Where “and” joins values, the source holds several entries; their conditions need not be identical. Equal values may be shown once.

Experiments:
[1] = system: humanized PXR-CAR-CYP3A4/3A7 mice, plasma; test: Plasma metabolomics (HFD study); assay type: in vivo, mouse
Description: Metabolomic plasma analysis was performed using plasma samples from male PXR/CAR/CYP3A4 mice (n=5) treated with MI-883 in the proof-of-concept study involving a high-fat diet^23. Plasma samples were prepared on ice, and each sample was separated into two 20 μl aliquots. All prepared aliquots were then frozen and stored at −80°C until analysis. Plasma aliquots were thawed, and protein precipitation was performed by adding 60 μl of a mixture containing 40% methanol, 40% acetonitrile, and 20% water. Samples were mixed, incubated for 12 hours at -20°C, and then centrifuged at 20,000 g for 10 minutes. The supernatants were collected for analysis by LC-MS/MS. A pooled quality control sample was prepared by mixing 10 μl from each sample. LC separation was performed on an iHILIC® Classic column (iHILIC®-(P) Classic, HILIC Column, PEEK,100x2.1mm, 5µm, 200Å, Hilicon, Umeå, Sweden) using a water/acetonitrile gradient with 10 mM ammonium formate, starting from 95% to 42% over 15 minutes in both polarities. LC-MS/MS analysis was conducted on the ID-X Orbitrap Tribrid Mass Spectrometer (ThermoFisher Scientific).

[2] = Repeated dose 28-day oral toxicity study in rats (OECD 407, non-GLP); assay type: in vivo; settings: rat, in vivo, 10 mg/kg; 28 days per os, rats
Description: (§1) A repeated dose 28-day oral toxicity study in Rats (Non–GLP Study) was carried out according to OECD Guideline for Testing of Chemicals No. 407 and relevant Test Facility SOPs at the Institute of Physiology, Academy of Sciences, Czech Republic as a service. The report is available after request. […] No clinical changes were observed during the administration period or the recovery period in the two selected groups. […]

rats = test: as above; assay type: in vivo; settings: up to 10 mg/kg
Description: as §1

[3] = Stability in mouse plasma; assay type: in vitro ADME; settings: read-out: Stability in mouse plasma, t1/2
Text: Plasma protein binding, and stability in human and mouse plasma have been tested as previously described.

[4] = system: humanized PXR-CAR-CYP3A4/3A7 mice, liver; test: RT-qPCR and Western blotting of liver samples (HFD study); assay type: in vivo, mouse
Description: RT-qPCR expression studies were performed on liver samples from eleven humanized PXR-CAR-CYP3A4/3A7 mice that were fed a high-fat diet and treated with 5 mg/kg MI-883 three times per week for four weeks. Specific TaqMan probes were used, following the protocol described in Supplementary Table S3.
Western blotting experiments have been performed in BioRad instruments with BioRad precasted gels and reagents. Antibodies are listed in Supplementary Table S4. Densitometry has been done using ChemiDoc™ MP Imaging System and software (BioRad, Hercules, USA). Data are presented as relative protein expression to control samples. For protein expression quantification, areas in histograms have been calculated and related to a reference protein.

PXR/NCOR2 = biological target: T1, PXR/NCOR2 (Homo sapiens, UniProt O75469); test: Mammalian two-hybrid PXR/corepressor NCOR2 release, HepG2; assay type: cell-based; design: key: firefly/Metridia luciferase activity ratio (normalized)
T1 construct: PXR-LBD (residues 108–434); expressed in transfected cells; host or cells: HepG2
T1 sequence (O75469 108-434): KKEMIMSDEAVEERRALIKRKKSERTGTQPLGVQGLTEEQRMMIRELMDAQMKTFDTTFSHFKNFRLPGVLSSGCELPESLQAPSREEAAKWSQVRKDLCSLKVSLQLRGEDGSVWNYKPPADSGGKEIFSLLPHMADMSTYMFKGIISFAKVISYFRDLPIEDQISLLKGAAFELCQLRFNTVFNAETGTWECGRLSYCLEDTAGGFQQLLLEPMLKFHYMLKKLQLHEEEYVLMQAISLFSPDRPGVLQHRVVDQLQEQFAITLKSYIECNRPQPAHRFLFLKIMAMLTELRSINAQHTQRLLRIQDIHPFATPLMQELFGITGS
T1 sequence (P19793 whole entry partner, the tested form may be a part): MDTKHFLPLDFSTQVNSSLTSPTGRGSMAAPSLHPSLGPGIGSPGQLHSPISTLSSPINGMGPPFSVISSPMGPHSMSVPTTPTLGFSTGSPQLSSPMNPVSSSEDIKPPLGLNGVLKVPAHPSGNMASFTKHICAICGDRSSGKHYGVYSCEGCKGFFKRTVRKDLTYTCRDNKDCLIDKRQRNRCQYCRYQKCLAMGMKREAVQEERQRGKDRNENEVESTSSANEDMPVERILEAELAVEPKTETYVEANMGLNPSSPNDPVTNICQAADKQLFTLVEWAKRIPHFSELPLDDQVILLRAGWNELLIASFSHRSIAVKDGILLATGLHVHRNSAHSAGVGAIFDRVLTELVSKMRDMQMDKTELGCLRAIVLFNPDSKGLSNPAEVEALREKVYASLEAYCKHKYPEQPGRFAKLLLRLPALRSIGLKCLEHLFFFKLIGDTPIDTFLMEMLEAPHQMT
Description: (§2) The GAL4-dependent pGL4-G5, harboring a pentamer of GAL4 binding sites in front of the E1b promoter was described before.
(§3) Transient batch transfection of HepG2 cells was done as described above. […] All transfections included 0.01 µg pMetLuc2control per well for normalization of firefly luciferase reporter activities. After overnight incubation with the transfection mixtures, cells were treated with chemicals in a volume of 100 µl of cell culture medium. […] Firefly luciferase activity was measured in 10 µl of cell lysates, and Metridia luciferase activity was analyzed in 10 µl of medium supernatant, both as described before. Results were normalized by dividing firefly luciferase activity by Metridia luciferase activity measured from the same well. Measurements of samples were repeated several times (n ≥ 3).

VD = VD (Homo sapiens, UniProt P11473); test: Luciferase reporter gene assay VD receptor, HepG2
Sequence of VD (P11473 127-423 limits assumed): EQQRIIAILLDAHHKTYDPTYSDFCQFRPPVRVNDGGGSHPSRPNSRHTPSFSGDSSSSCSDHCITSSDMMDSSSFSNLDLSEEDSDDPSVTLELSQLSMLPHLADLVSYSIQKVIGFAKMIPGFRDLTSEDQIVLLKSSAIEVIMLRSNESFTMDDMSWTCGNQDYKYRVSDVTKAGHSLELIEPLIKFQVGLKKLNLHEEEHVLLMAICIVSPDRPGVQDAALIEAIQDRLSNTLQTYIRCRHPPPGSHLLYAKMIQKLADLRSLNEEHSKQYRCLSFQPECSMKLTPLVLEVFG
Description: The luciferase reporter gene assays for FXR, LXRα, LXRβ, THα, GRα, PPARα, PPARδ/β, PPARγ, AhR, VD, ERα, ERβ and mouse Car are described in our recent paper[19]
(§4) Gal4-LBD constructs of tested nuclear receptors have been used together with pGL4.31[luc2P/GAL4UAS/Hygro] luciferase reporter construct and pRL-TK Renilla expression vector (both from Promega, Hercules, USA) in HepG2 cells transfected with Lipofectamine 2000 or 3000 reagents. For GRα and FXR receptors, full-length expression vectors have been used with pGRE-luc or pFXRE-luc luciferase constructs. For the aryl hydrocarbon receptor (AhR), p1A1-luc construct was used with only pRL-TK vector for transfection normalization. A dual reporter assay (Promega, Hercules, USA) was used to analyze both firefly and Renilla luciferase activities.
(§5) Gal4-LBD constructs of tested nuclear receptors have been used together with pGL5-luc luciferase reporter construct and pRL-TK Renilla expression vector in HepG2 cells transfected with Lipofectamine 2000 or 3000 reagents. For GRα and FXR receptors, full-length expression vectors have been used with pGRE-luc or pFXRE-luc luciferase constructs. For the aryl hydrocarbon receptor (AhR), p1A1-luc construct was used with only pRL-TK vector for transfection normalization. […] Bars represent means±S.D. (n=3).

FXR = FXR (Homo sapiens, UniProt Q96RI1); test: Luciferase reporter gene assay FXR, HepG2
Sequence of FXR (Q96RI1 whole entry): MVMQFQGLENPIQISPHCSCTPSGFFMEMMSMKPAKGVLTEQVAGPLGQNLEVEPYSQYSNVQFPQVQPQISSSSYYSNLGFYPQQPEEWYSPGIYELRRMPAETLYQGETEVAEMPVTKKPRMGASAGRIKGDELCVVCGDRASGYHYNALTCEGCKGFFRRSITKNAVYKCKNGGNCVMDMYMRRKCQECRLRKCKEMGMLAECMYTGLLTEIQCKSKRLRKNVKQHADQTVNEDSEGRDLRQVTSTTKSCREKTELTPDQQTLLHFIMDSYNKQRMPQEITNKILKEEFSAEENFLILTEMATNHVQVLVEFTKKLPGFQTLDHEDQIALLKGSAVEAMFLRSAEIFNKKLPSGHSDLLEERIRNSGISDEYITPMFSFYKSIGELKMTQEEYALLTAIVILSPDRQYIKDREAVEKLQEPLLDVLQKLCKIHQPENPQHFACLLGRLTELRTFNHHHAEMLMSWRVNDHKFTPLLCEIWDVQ
Description: as §4, §5

[5] = Metabolic stability in mouse liver S9 fraction; settings: male, CD-1, mouse
Description: Shimadzu HPLC system including vacuum degasser, gradient pumps, reverse phase HPLC column, column oven, and autosampler with an API 4000 QTRAP mass spectrometer (Applied Biosystems/MDS Sciex (AB Sciex) with Turbo V ion source and TurboIonspray interface were used. The reference compound midazolam, which is metabolized both by phase I and phase II enzymes, was used. The elimination constant (kel), half-life (t1/2), and intrinsic clearance (Clint) were determined[19] (Table S1).

PXR/MED1 = biological target: T2, PXR/MED1 (Homo sapiens, UniProt O75469); test: Mammalian two-hybrid PXR/coactivator MED1 recruitment, HepG2; assay type: cell-based; design: key: firefly/Metridia luciferase activity ratio (normalized)
T2 construct: PXR-LBD (residues 108–434); expressed in transfected cells; host or cells: HepG2
T2 sequence (O75469 108-434): as the sequence (O75469 108-434) above
Description: as §2, §3

[6] = FigS18c, plasma, individual animals
[7] = FigS13, individual animals, relative to control
[8] = HFD study, Western blotting, form not given
[9] = hPXR/hCAR/hCYP3A4/7 mice, relative to control, individual animals
[10] = single agent: RIF (10 µM), MI-883 10 μM

NC(=O)c1cc(Cn2cc(-c3c(-c4ccc(Cl)cc4)nc4cc(F)ccn34)nn2)ccc1Cl [MI-883, 2-chloro-5-((4-(2-(4-chlorophenyl)-7-fluoroimidazo[1,2-a]pyridin-3-yl)-1H-1,2,3-triazol-1-yl)methyl)benzamide]
Isoleucine (plasma metabolomic data) [1, 6]: 93.5 and 119.8 and 74.2 and 56.6 and 106.4 and 73.7 | Leucine (plasma metabolomic data) [1, 6]: 53.5 and 73.3 and 34.8 and 24.3 and 49.7 and 38.6 | Valine (plasma metabolomic data) [1, 6]: 2968.9 and 1967.5 and 1520.8 and 1183.5 and 1942.7 and 1962.8 | plasma 2-hydroxy-3-oxopropanoate, change ([1]; HFD study, male mice): 1.595 fold | plasma 5-aminopentanoic acid (5-aminovalerate), change ([1]; HFD study, male mice): 1.375 fold | plasma isoleucine, change ([1]; HFD study, male mice): 1.638 fold | plasma small-molecule metabolome ([1]; HFD study, male mice): no significant effect | NOAEL at 28 days [2]: > 10 mg/kg | toxicity in 28-day oral study in rats (rats): no toxicity | toxicity in 28-day oral study in rats (rats; listed as MI833): No clinical signs of toxicity | half-life [3]: > 2 h | Acaca mRNA (RT-qPCR) [4, 7]: 0.62 and 1.24 and 0.73 and 1.27 and 0.85 and 0.6 and 0.7 and 0.51 and 0.8 and 0.28 and 0.34 | Cd36 mRNA (RT-qPCR) [4, 7]: 0.88 and 1.19 and 0.76 and 1.31 and 0.8 and 0.72 and 1.01 and 0.19 and 1.11 | Cpt1a mRNA (RT-qPCR) [4, 7]: 1.05 and 0.92 and 2.34 and 0.85 and 1.37 and 0.77 and 1.27 and 0.96 and 1.08 and 0.81 and 0.88 | FaSN mRNA (RT-qPCR) [4, 7]: 0.51 and 0.56 and 0.8 and 0.98 and 0.62 and 0.37 and 0.54 and 0.38 and 0.73 and 0.14 and 0.71 | Plin2 mRNA (RT-qPCR) [4, 7]: 0.41 and 0.63 and 0.49 and 0.9 and 0.62 and 0.85 and 0.58 and 0.57 and 1 and 0.16 and 0.74 | Pnpla3 mRNA (RT-qPCR) [4, 7]: 1.72 and 1.4 and 0.48 and 1.37 and 0.96 and 0.84 and 0.35 and 0.25 and 1.49 and 0.03 and 1.94 | Ppara mRNA (RT-qPCR) [4, 7]: 0.97 and 0.71 and 1.1 and 0.18 and 1.04 | Scd1 mRNA (RT-qPCR) [4, 7]: 0.36 and 0.67 and 0.33 and 0.76 and 0.51 and 0.6 and 0.47 and 0.34 and 0.52 and 0.56 | liver Scd1 mRNA, RT-qPCR (n = 11) ([4]; HFD study, P = 0.0036): significantly downregulated | liver Fasn and Plin2 mRNA, RT-qPCR ([4]; HFD study, P = 0.007 and P = 0.018): significantly downregulated | liver Cyp7a1 and Cyp8b1 proteins ([4]; HFD study, Western blotting): significant upregulation | liver Insig1 prot, individual samples ([4]; HFD study, Western blotting): 3.8 and 3.3 and 3.1 and 2.9 | liver Srebp1 120 kDa protein or mature nuclear fragments (mSrebp1) ([4]; HFD study, Western blotting): did not see any significant decrease | liver Mrp4 prot, individual samples ([4]; HFD study, Western blotting, relative to control): 1.89 and 1.6214 and 2.1487 and 1.571 | liver Srebp1/2 protein, lower block, first control/MI-883 pair [4, 8]: 1.8 and 1.6 and 1.7 and 1.1 | liver Srebp1/2 protein, lower block, second control/MI-883 pair [4, 8]: 0.6 and 0.7 and 0.5 | liver Srebp1/2 protein, upper block, second control/MI-883 pair [4, 8]: 1.7 and 1.5 and 1.1 and 1.2 | liver mature nuclear mSrepb2 protein ([4]; HFD study, effect is not significant): may decrease | liver Cyp7a1 mRNA, RT-qPCR, individual animals ([4]; HFD study, relative to control): 0.7586 and 0.4023 and 0.5977 and 0.2759 and 0.5402 and 0.954 and 0.4943 and 0.9885 and 0.5172 | liver Insig1 mRNA, RT-qPCR, individual animals ([4]; HFD study, relative to control): 1.68 and 2.22 and 0.72 and 0.43 and 1.13 and 1.06 and 1.18 and 2.34 and 1.52 and 1.27 and 0.68 | liver Mrp4 mRNA, RT-qPCR, individual animals ([4]; HFD study, relative to control): 4.091 and 6.648 and 4.182 and 4.443 and 4.045 and 2.545 and 4.341 and 10.0455 and 5.239 and 3.409 | liver Srebf1 mRNA, RT-qPCR, individual animals ([4]; HFD study, relative to control): 0.7619 and 0.9619 and 0.5619 and 0.6 and 1.105 and 0.7714 and 0.7143 and 0.8857 and 0.819 and 0.4571 | liver Sult2a1 mRNA, RT-qPCR, individual animals ([4]; HFD study, relative to control): 4.077 and 3.288 and 1.404 and 2.538 and 0.8846 and 1.615 | liver Ugt1a1 mRNA, RT-qPCR, individual animals ([4]; HFD study, relative to control): 1.852 and 2.477 and 1.455 and 1.284 and 1 and 1.58 and 1.148 and 2.057 and 2 and 2.17 and 0.8977 | liver Ugt2b34 mRNA, RT-qPCR, individual animals ([4]; HFD study, relative to control): 1.412 and 2.106 and 2.063 and 1.118 and 1.379 and 0.7926 | liver murine Gadd45b mRNA and Meg3 lncRNA ([4]; PXR-CAR-CYP3A4/3A7 mice (Fig. 7a)): statistically significant upregulation | Bcl2 expression (Fig. 7a) [4, 9]: 0.87 and 0.95 and 0.93 and 1.25 and 1.35 and 0.29 | Cdkn1a expression (Fig. 7a) [4, 9]: 1.39 and 0.41 and 0.43 and 0.27 and 1.57 and 0.35 | Foxm1 expression (Fig. 7a) [4, 9]: 2.03 and 1.26 and 1.41 and 1.28 and 1.37 and 0.42 | Gadd45b expression (Fig. 7a) [4, 9]: 2.07 and 7.83 and 4.06 and 7.82 and 5.69 and 2.44 | Mcl1 expression (Fig. 7a) [4, 9]: 0.58 and 1.09 and 0.6 and 1.16 and 0.84 and 0.26 | Meg3 expression (Fig. 7a) [4, 9]: 2.24 and 7.88 and 3.05 and 3.57 and 2.39 | Mki67 expression (Fig. 7a) [4, 9]: 1.7 and 1.18 and 1.43 and 1.11 and 1.31 and 0.71 | Pcna expression (Fig. 7a) [4, 9]: 0.78 and 1.24 and 0.66 and 0.89 and 0.57 and 0.36 | PXR/NCOR2 (SMRT) two-hybrid activity, replicates (PXR/NCOR2; MI-883 30 μM): 0.575 and 0.629 and 0.672 and 0.562 and 0.437 | PXR/NCOR2 (SMRT) two-hybrid activity, replicates (PXR/NCOR2; [10]): 0.59 and 0.547 and 0.723 and 0.544 and 0.703 | NRs assays: VDR (relative to ctrl, replicates) (VD): 0.7 and 0.81 and 0.9 | NRs assays: FXR (relative to ctrl, replicates) (FXR): 0.85 and 0.88 and 1.01 | microsomal CLint ([5]; liver S9 fraction): 3 µL/min/mg | half-life ([5]; s9): 1.87 h | PXR/DRIP2025 (MED1) two-hybrid activity, replicates (PXR/MED1; MI-883 30 μM): 0.42 and 0.46 and 0.18 and 0.3 and 0.2 | PXR/DRIP2025 (MED1) two-hybrid activity, replicates (PXR/MED1; [10]): 0.33 and 0.2 and 0.19 and 0.27 and 0.23
